Measured values published in patent US9586896B2, “Nitroxyl donors with improved therapeutic index” (Cardioxyl Pharmaceuticals, Inc., priority 2013, dated 2017).

Legend:
[1] = test system: normal canines; test: Hemodynamic efficacy (PV loop analysis) in normal canines; type: in vivo, beagle dogs; conditions: i.v. infusion
Procedure: The cardiovascular effects of nitroxyl donors were examined by means of pressure-volume (PV) curve (loops) analysis in conscious, sling-restrained beagle dogs. Animals were allowed free access to drinking water and a commercial canine diet under standard laboratory conditions. Fluorescent lighting was provided via an automatic timer for approximately 12 hours per day. On occasion, the dark cycle was interrupted intermittently due to study-related activities. Temperature and humidity were monitored and recorded daily and maintained to the maximum extent possible between 64° F. and 84° F. and 30% to 70%, respectively. The dogs were acclimated for a period of at least 1 week prior to surgery. Following surgery and recovery the animals were acclimated to sling restraint for a period up to 4.5 hours. Animals were fasted overnight prior to surgery.
Once a stable (surgical) plane of anesthesia had been established, a left-thoracotomy was performed (under strict aseptic conditions) and each animal was chronically instrumented with sono-micrometry crystals providing left-ventricular (LV) dimensions/volume. Additionally, a fluid-filled catheter and a solid-state monometer were placed in the left ventricle for pressure monitoring. A fluid-filled catheter was placed in the right ventricle (RV) and the aorta (Ao) for pressure monitoring/test article administration. […] The catheters/wires were aseptically tunneled and externalized between the scapulae. Over the course of the study, fluid-filled catheters were regularly (at least once weekly) flushed with a locking-solution in order to prevent both clotting and bacterial growth (2-3 mL of Taurolidine-Citrate solution, TCS-04; Access Technologies).
The animals (normal or heart failure) were studied during treatment with both vehicle (control) and a nitroxyl donor (either CXL-1020, a compound of formula (1) or a compound of formula (2)). At each dosing period, conscious sling-restrained animals were continuously monitored for up to two to three hours. Following hemodynamic stabilization, infusion of the vehicle was started. […] Infusion of the vehicle was continued and after 30 min another (baseline) set of hemodynamic data was collected. Following collection of baseline hemodynamic data, infusion of the nitroxyl donor compound being tested was initiated and derived hemodynamic/functional parameters were obtained/performed at up to four (4) time points selected from the following: at 30, 60, 90, 120, and 180 minutes after the onset of vehicle/test compound infusion. For the placebo or time-control treatment group, each animal was administered an infusion of an appropriate placebo for up to 180 minutes. In all cases, the test compound was delivered at a constant intravenous infusion rate of 1 mL/kg/hr and was compared at a molar equivalent dose rate.
The resulting left-ventricular pressure and volume data were analyzed in order to generate relationships representing the contractile and energetic state of the myocardium. Systolic arterial pressure (SAP), diastolic arterial pressure (DAP), and mean arterial pressure (MAP) were collected. Left-ventricular mechanical and/or geometrical indices were obtained from the pressure (ESP, EDP, dP/dt max/min, time-constant of relaxation-tau [based on mono-exponential decay with non-zero asymptote]) and volume (end-systolic volume (ESV), end diastolic volume (EDV), stroke volume (SV)) signal. In addition, the following measurements were derived from left-ventricular pressure-volume data (PV loops) generated during brief periods of preload reduction: pressure volume area (PVA) and stroke work (SW), end-systolic (ESPVR) and end-diastolic (EDPVR) pressure volume relationships, and end systolic pressure and stroke volume relationship (arterial elastance (Ea)). Representative data obtained from studies in normal dogs and heart failure dogs is shown in Table 5 and Table 6, respectively. A SVR (systemic vascular resistance) decrease correlates with vasodilation.

[2] = Nitroxyl production via N2O quantification (GC headspace analysis); type: physicochemical; conditions: PBS, 37° C.
Source text: Nitrous oxide (N2O) is produced via the dimerization and dehydration of HNO, and is the most common marker for nitroxyl production (Fukuto et al., Chem. Res. Toxicol. 18:790-801 (2005)). […] Using either nitrous oxide gas or Angeli's salt (AS) as a standard, the relative amounts of N2O released from compounds of the disclosure was examined via gas chromatography (GC) headspace analysis.
A procedure for determining the relative amounts of N2O released from compounds of the disclosure is as follows. GC was performed on an Agilent gas chromatograph equipped with a split injector (10:1 splitting), microelectron capture detector, and a HP-MOLSIV 30 m×0.32 mm×25 μm molecular sieve capillary column. Helium was used as the carrier (4 mL/min) gas and nitrogen was used as the make-up (20 mL/min) gas. The injector oven and the detector oven were kept at 200° C. and 325° C., respectively. All nitrous oxide analyses were performed with the column oven held at a constant temperature of 200° C.
All gas injections were made using an automated headspace analyzer. Vial pressurization was 15 psi. The analyzer's sample oven, sampling valve, and transfer line were kept at 40° C., 45° C., and 50° C., respectively. The oven stabilization, vial pressurization, loop fill, loop equilibration, and sample injection times were 1.00 min., 0.20 min., 0.20 min., 0.05 min., and 1.00 min., respectively.
All determinations used a batch of nominal 20 mL headspace vials with volumes pre-measured for sample uniformity (actual vial volume varied by ≦2.0% relative standard deviation (n=6)). The average vial volume for the batch was determined from six randomly-selected vials by calculating the weight difference between the capped and sealed empty (i.e., air-filled) vial and the capped and sealed deionized water-filled vial using the known density of deionized water, then averaging. Blanks were prepared by sealing and capping two vials then purging each for 20 seconds with a gentle argon stream. […]

[3] = dose rate 50 (μmol/kg/min [sic])

| SMILES | Tau (% Change from Baseline) ([1]; dose rate 100 (μmol/kg/min [sic])) [%] | Relative N2O Yield (90 minute incubation) [2] [%] | Relative N2O Yield (360 minute incubation) ([2]; 360 minute incubation) [%] | EDV (% Change from Baseline) [1, 3] [%] | ESP (% Change from Baseline) [1, 3] [%] | ESPVR (% Change from Baseline) [1, 3] [%] | HR (% Change from Baseline) [1, 3] [%] | PRSW (% Change from Baseline) [1, 3] [%] | SW (% Change from Baseline) [1, 3] [%] | Tau (% Change from Baseline) [1, 3] [%] |
| --- | --- | --- | --- | --- | --- | --- | --- | --- | --- | --- |
| CS(=O)(=O)c1cccc(S(=O)(=O)NO)c1 [(2), N-Hydroxy-3-methanesulfonylbenzene-1-sulfonamide] | −6.40 ± 7.11 | 82 | 94 | – | – | – | – | – | – | – |
| Cc1ccc(S(=O)(=O)NO)o1 [Compound (1), N-Hydroxy-5-methylfuran-2-sulfonamide] | – | 52 | – | −6 ± 2 | −18 ± 2 | 19 ± 1 | −4 ± 2 | 12 ± 1 | −11 ± 4 | −6 ± 1 |
